“And” between values parts separate entries of the source, which are not always exact repeats. Equal values may be shown once.
What was measured:
[1] = tested on: Aspartylglucosaminuria patient fibroblasts; experiment: Lysosomal volume via LysoTracker, Aspartylglucosaminuria fibroblasts; format: cell-based, human; details: 1 mM, 6 days
[2] = tested on: MSA-C patients; experiment: Case studies, multisystemic atrophy cerebellar type (MSA-C) patients; format: in vivo, human
[3] = tested on: frontotemporal dementia with parkinsonism patient; experiment: Case study, frontotemporal dementia with parkinsonism; format: in vivo, human; details: frontotemporal dementia with parkinsonism
Description: After approximately one month of acetyl-leucine treatment, medication was stopped and the patient was re-examined 13 days later.

[4] = tested on: downbeat nystagmus patients; experiment: Case studies, downbeat nystagmus patients; format: in vivo, human; details: downbeat nystagmus Patient 2
[5] = tested on: NPC patients; experiment: Clinical severity score (CSS) and annual severity increment score (ASIS) in NPC patients; format: in vivo, human; design: key to CSS overall / CSS eye movement / CSS ambulation / CSS speech / CSS swallow / CSS fine motor skills / CSS cognition / CSS memory / CSS seizures: NPC clinical severity score; higher score = greater severity; details: for CSS overall / CSS ambulation / CSS cognition / CSS eye movement / CSS fine motor skills / CSS memory / CSS seizures / CSS speech / CSS swallow / ASIS overall: NPC patients; for ASIS overall: CSS divided by age
Description: Progression of a neurodegenerative disease over time or through treatment can be monitored, for example, using one or more known tests at two or more time points and comparing the results. Disease progression and/or severity can be assessed, for example, using the Scale for the Assessment and Rating of Ataxia (SARA), Spinocerebellar Ataxia Functional Index (SCAFI), the International Cooperative Ataxia Rating Scale (ICARS), the brief ataxia rating scale (BARS), the modified Disability Rating Scale (mDRS), EuroQol 5Q-5D-5L (EQ-5D-5L), the visual analogue scale (VAS), neuropsychological tests, such as Wechsler Adult Intelligence Scale-Revised (WAIS-R), Wechsler Intelligence Scale for Children-IV (WISC-IV), Montreal Cognitive Assessment (MoCA), as well as scales used in movement disorders, such as the Unified Parkinson's Rating Scale (UPRS) or the Unified Multiple System Atrophy Rating Scale (UMSARS), or other suitable tests. For certain LSDs, such as NPC, particular scores have been developed and validated over the last decades, for instance the clinical severity score (CSS) and annual severity increment score (ASIS) (see Yanjanin et al., “Linear Clinical Progression, Independent of Age of Onset, in Niemann-Pick Disease, Type C,” Am J Med Genet Part B 153B:132-140) and the modified 6-Domain NP-C disability Scale (mDRS score). For example, an NPC patient's severity can be quantified by assigning a CSS, which assesses various parameters of the disease (ambulation, seizures, eye movement, etc.) and gives each parameter a score out of 5. A higher score equals a greater severity. The ASIS quantifies the annual rate of change in the CSS, calculated by dividing the CSS by the patient's age. In this regard, certain scores in these tests are characteristic of symptomatic neurodegenerative disease patients and evidence disease progression and/or severity.
An NPC patient's severity may be quantified by assigning a clinical severity score (CSS), which assesses various parameters of the disease and gives each parameter a score out of 5 (higher score=greater severity). See Yanjanin et al., “Linear Clinical Progression, Independent of Age of Onset, in Niemann-Pick Disease, Type C,” Am J Med Genet Part B 153B:132-140. In an untreated patient, one can typically predict how the CSS will change over time in an individual, as disease progression appears to be linear. For example, if Patient A moves from a CSS of 8 to a CSS of 12 between month 0 and month 12, it can be predicted that by month 36, the patient will have a CSS of 20. The annual severity increment score (ASIS) quantities the annual rate of change in the CSS, calculated by dividing the CSS of a patient by the patient's age. […] Each year, the patient would be expected to progress by 4 CSS points, such that at 4 years of age, the patient's CSS would be 16. If therapeutic intervention slowed or arrested disease progression, one would expect the patient to have a smaller ASIS score after such therapy than at baseline.
Ten NPC patients were administered acetyl-leucine at 4.5 g/day over long durations. ACSS was determined at baseline, and at various time points, for eye movement, ambulation, speech, swallow, fine motor skills, cognition, memory, and seizures. An overall CSS was calculated at baseline and at each such time point by adding the individual CSS values for each parameter (eye movement, ambulation, etc.).
The ASIS at baseline and each time point was calculated using each patient's CSS and age at the time of assessment. The overall ASIS for each patient at each time point is shown below in Table 35.

[6] = MSA-C Patient 3, after 20 days of re-suspending treatment
[7] = MSA-C Patient 3, after 27 days of treatment
[8] = MSA-C Patient 3, shortly after commencing treatment
[9] = one line per Patient, 4.5 g/day, Time Point 2, listed as acetyl-leucine
[10] = one line per Patient, 4.5 g/day, Time Point 3, listed as acetyl-leucine
[11] = one line per Patient, 4.5 g/day, Time Point 4, listed as acetyl-leucine

CC(=O)NC(CC(C)C)C(=O)O (racemic) [acetyl-DL-leucine]
LysoTracker fluorescence relative to untreated disease fibroblasts [1]: trend in reducing LysoTracker fluorescence
Speech ([2]; MSA-C Patient 1, 5 g per day, after one week): significant improvement in speech
Falls ([2]; MSA-C Patient 2, after 3 weeks, before approximately 10 falls a month): falls completely stopped
Symptoms after stopping medication ([2]; MSA-C Patient 2, one week after stopping): deterioration of gait and dizziness
Symptoms after stopping medication again ([2]; MSA-C Patient 2, two days after stopping, following a further 40 days of treatment): progressive deterioration of gait and dizziness
Gait ([2]; MSA-C Patient 2, up to 5 gram per day, after 3 weeks): significant improvement of gait
speed ([2]; MSA-C Patient 3, 5 gram per day, after 27 days of treatment): 106 cm/s
Coefficient of variation (temporal) [2, 6]: 2.5
Double stance [2, 6]: 27.1%
Functional Gait Assessment [2, 6]: 22/30
Max. speed [2, 6]: 197 cm/s
Step cycle length [2, 6]: 115 cm
Track width [2, 6]: 17.5 cm
cadence [2, 6]: 112 steps/minute
speed [2, 6]: 106 cm/s
Coefficient of variation (temporal) [2, 7]: 3.1
Double stance [2, 7]: 27.3%
Functional Gait Assessment [2, 7]: 20/30
Max. speed [2, 7]: 208 cm/s
Step cycle length [2, 7]: 113 cm
Track width [2, 7]: 14.6 cm
cadence [2, 7]: 113 steps/minute
Gait analysis (summary) ([2]; MSA-C Patient 3, after one month of treatment): improvement of gait speed, and reductions of track width and gait fluctuations
Symptoms after stopping medication ([2]; MSA-C Patient 3, approximately two to three weeks after stopping): progressive deterioration of gait and dizziness
Coefficient of variation (temporal) [2, 8]: 3.3
Double stance [2, 8]: 32.5%
Functional Gait Assessment [2, 8]: 21/30
Max. speed [2, 8]: 183 cm/s
Step cycle length [2, 8]: 87 cm
Track width [2, 8]: 16.8 cm
cadence [2, 8]: 101 steps/minute
speed [2, 8]: 72 cm/s
Gait ([3]; 5 gram per day, approximately one month of treatment): significant improvement of gait
Symptoms after suspension of treatment ([3]; re-examined 13 days after stopping): symptoms worsened
Speech ([3]; under therapy): improvement of speech
Falls ([3]; under therapy, before 2-3 falls per month): falls stopped
Self-chosen velocity (gait analysis) ([4]; about one month after stopping treatment, decrease from 85): 72 cm/s
Maximal gait velocity ([4]; about one month after stopping treatment, decrease from 155): 113 cm/s
Self-chosen velocity (gait analysis) ([4]; on treatment, increase from 56): 85 cm/s
CSS overall ([5]; one line per Patient I.D 1-10, 4.5 g/day, Time Point 2 (78-400 days, Table 25), listed as acetyl-leucine): 13 and 12 (3×) and 23 and 19 and 22 and 11 (2×) and 33
CSS ambulation [5, 9]: 2 (5×) and 1 (3×) and 4 and 5
CSS cognition [5, 9]: 3 (5×) and 4 (3×) and 2 and 5
CSS eye movement [5, 9]: 2 and 3 (9×)
CSS fine motor skills [5, 9]: 1 (6×) and 4 (2×) and 2 and 5
CSS memory [5, 9]: 1 (5×) and 3 and 4 (3×) and 0
CSS seizures [5, 9]: 0 (9×) and 5
CSS speech [5, 9]: 2 (4×) and 1 (6×)
CSS swallow [5, 9]: 2 (5×) and 3 (3×) and 0 and 4
CSS overall ([5]; one line per Patient, 4.5 g/day, Time Point 3 (165-644 days), listed as acetyl-leucine): 10 (2×) and 12 and 21 (2×) and 19 and 11 (2×) and 33
CSS ambulation [5, 10]: 1 (5×) and 2 (3×) and 5
CSS cognition [5, 10]: 3 (5×) and 4 (3×) and 5
CSS eye movement [5, 10]: 2 (2×) and 3 (7×)
CSS fine motor skills [5, 10]: 1 (5×) and 4 (2×) and 2 and 5
CSS memory [5, 10]: 0 (2×) and 1 (3×) and 3 (2×) and 4 (2×)
CSS seizures [5, 10]: 0 (8×) and 5
CSS speech [5, 10]: 1 (6×) and 2 (3×)
CSS swallow [5, 10]: 2 (4×) and 3 (3×) and 0 and 4
CSS eye movement ([5]; one line per Patient, 4.5 g/day, Time Point 4): 3
CSS overall ([5]; one line per Patient, 4.5 g/day, Time Point 4 (297-414 days), listed as acetyl-leucine): 12 and 21 and 33
CSS ambulation [5, 11]: 1 and 2 and 5
CSS cognition [5, 11]: 3 and 4 and 5
CSS fine motor skills [5, 11]: 1 and 4 and 5
CSS memory [5, 11]: 1 and 3 and 4
CSS seizures [5, 11]: 0 (2×) and 5
CSS speech [5, 11]: 1 and 2 (2×)
CSS swallow [5, 11]: 2 and 3 and 4
ASIS overall ([5]; one line per patient (order of Table 26), Time Point 2, listed as acetyl-leucine): 0.4767 and 0.4299 and 0.6073 and 0.5333 and 0.4452 and 0.7124 and 0.406 and 0.3769 and 1.905 and 0.5926
ASIS overall ([5]; one line per patient, Time Point 3, listed as acetyl-leucine): 0.3635 and 0.4232 and 0.5523 and 0.5299 and 0.4029 and 0.6656 and 0.3393 and 1.881 and 0.5325
ASIS overall ([5]; one line per patient, Time Point 4, listed as acetyl-leucine): 0.4162 and 0.5454 and 1.853
ASIS during treatment relative to ASIS at baseline ([5]; ten NPC patients, 4.5 g/day): all ten patients showed a reduction in ASIS
Overall change in CSS over the course of the experiment ([5]; ten NPC patients, 4.5 g/day): none of the ten patients showed an overall increase in CSS

Reference: patent US11793782B2, “Therapeutic agents for neurodegenerative diseases” (priority 2017, dated 2023)
